# Source: patent EP4741374A1, “TREPROSTINIL DERIVATIVE, AND PREPARATION METHOD THEREFOR AND USE THEREOF” (CF PharmTech HongKong Limited, priority 2023, dated 2025)
# Key:
# [1] = Stability of treprostinil derivative in ethanol/water solutions of different pH (light irradiation, 40°C, 60°C); type: physicochemical
# Protocol: 1 mol/L hydrochloric acid and/or sodium hydroxide aqueous solution and distilled water were used to prepare 100 mL solutions with different pH values (3.0, 4.0, 5.0, 6.0, 7.0, 8.0, 9.0 and 10.0) for later use. 640 mg of compound Ia-2 was taken and added with 640 mL of 90% ethanol as a diluent to completely dissolve the compound, and then prepared into 1 mg/mL sample solution 1 for later use. • (1) […] of 90% ethanol, the sample solution 1 and 80 mL of each aqueous solution with different pH value (3.0, 5.0, 7.0 or 9.0) were taken and mixed evenly (ethanol: water =1.5: 1), and filled 2 mL per vial to obtain total 90 vials of samples, and the samples were divided into three groups equally for stability examination under the condition of light-irradiation, high-temperature of 40°C or high-temperature of 60°C. The samples of the two high-temperature stability examination groups were packaged in aluminum foil bags, 10 vials per bag; and the samples of the light-irradiation stability examination group were packaged in transparent bags, 10 vials per bag. • (2) 80 mL of 90% ethanol, the sample solution 1 and 80 mL of each aqueous solution with different pH value (4.0, 6.0, 8.0 or 10.0) were taken and mixed evenly (ethanol: water =2: 1), and then filled, grouped and packaged as above.
# After the above samples were placed under conditions as described in Table-1, 15 vials of samples were taken from each group at each detection time point for detection for each pH value solution, comprising: the content of compound, the content of related substances (impurities) and liquid properties (whether there was turbidity, stratification or color change). The content of compound and the content of related substances were calculated by calculating the percentage of area occupied by the main ingredient through an area normalization method. Table-1 Placement conditions for stability examination of compound Ia-2
# SD rats = assay: U46619-induced rat acute pulmonary arterial pressure rise model, airway nebulized administration (RVSP); type: in vivo
# Excerpt: U46619 was a stable analogue of thromboxane A2 (TXA2), which activated the downstream IP3 signal by binding to the thromboxane A2 receptor to promote vasoconstriction, platelet aggregation and the like. Influences of compound C16-TR and equimolar compounds Ia-1, Ia-2, Ia-3, R-11 and R-12 at different time points after airway nebulized administration on pulmonary hypertension of rats were studied by using the U46619-induced rat pulmonary arterial pressure rise mode, which were compared with that of equimolar TRE after airway nebulized administration.
# Preparation of test sample: a required amount of compound TRE was taken and added into a sterile EP tube, and each tube was added with an appropriate amount of DMSO for dissolution to prepare a stock solution (100 mg/mL). Compounds C16-TR, la-1, la-2, Ia-3, R-11 and R-12 were added with appropriate amounts of DMSO and dissolved in the original bottles to prepare stock solutions (100 mg/mL), and then the stock solutions were transferred to sterile EP tubes. Each above stock solution was hermetically stored in the dark in a refrigerator at 4°C. When the stock solution was tested, an appropriate amount of stock solution was taken and added into a new sterile EP tube, and diluted with DMSO and 1×PBS to a target concentration (working solution) wherein the solvent was 3% DMSO/1×PBS.
# Preparation of modeling agent: 900 µL of methyl acetate was added into an original bottle of U46619 and mixed evenly to prepare 1 mg/mL(1 µg/µL) stock solution, which was divided into 10 µL (1 µg/µL) per sterile EP tube and stored in a refrigerator at -20°C. On the day of modeling, the stock solution was taken out and balanced at room temperature and constant temperature, and each tube was added with an appropriate amount of 0.9% sodium chloride solution (sterile) to be diluted 20-fold, so as to prepare a working solution with a concentration of 50 ng/µL.
# Airway nebulized administration dosages of compound TRE and the test compounds were equimolar quantities calculated based on TRE. The dosage of compound TRE group (n=3) was 13.3 µg/kg, the dosage of compound C16-TR group (n=5) was 20.9 µg/kg, the dosage of compound Ia-1 group (n=3) was 21.2 µg/kg, the dosage of compound Ia-2 group (n=6) was 22.1 µg/kg, the dosage of compound Ia-3 group (n=6) was 23.1 µg/kg, the dosage of compound R-11 group (n=3) was 21.9 µg/kg, and the dosage of compound R-12 group (n=3) was 21.7 µg/kg. There were also a model control group (n=1) and a solvent control group (n=3).
# The SD rats were injected with U46619 (25 µg /kg) through the left jugular vein at different time points after airway nebulized administration, the peak value of RVSP rise after injection with U46619 was observed and recorded, and the inhibition percentage on the RVSP rise was calculated by comparing with the basic RVSP value. The rats in the model control group were administered with U46619 by intravenous injection immediately after successful catheterization and measurement of the basic RVSP. RVSP of all animals were detected by right cardiac catheterization, and respiratory conditions of the animals were observed generally. Table-2 Time points of administrating U46619 in various groups
structure (smiles),measurement,setting,value
CCCCC[C@H](O)CC[C@@H]1[C@H]2Cc3cccc(OCC(=O)OCCCCCCCCOCCCCc4ccccc4)c3C[C@H]2C[C@H]1O [Compound Ia-2],content of compound,"[1]; each group (pH 3-10), placement at 40°C for 30 days",higher than 80%
same,content of compound,"[1]; ethanol: water 1.5:1 or 2.0:1, different pH values, after placement for 10 days",higher than 95%
same,ethyl ester impurities,"[1]; extreme conditions: pH=3, 60°C for 30 days, pH=10, 40°C for 30 days or 60°C more than 10 days",8.0~9.0%
same,ethyl ester impurities,"[1]; high-temperature placement, other conditions",less than 4.0%
same,ethyl ester impurities,"[1]; light irradiation, each group, after 10 days",less than 1.80%
same,content of compound,"[1]; solution with pH=5.0~9.0, placement at 60°C for 30 days",higher than 90%
same,"antihypertensive effect and duration, overall","SD rats; 1 to 48 hours after airway nebulized administration, equimolar doses",stronger antihypertensive effects than C16-TR and longer durations
same,antihypertensive effect,"SD rats; 24 hours after airway nebulized administration, equimolar to 13.3 µg/kg TRE",obvious antihypertensive effects
same,antihypertensive effect,SD rats; 48 hours after airway nebulized administration,absence of an antihypertensive effect
